Among the data in patent US12264156B2, “Compounds and pharmaceutical compositions thereof for the treatment of diseases” (GALAPAGOS NV, priority 2018, dated 2025) are IC50 values, retold here.

As usually defined, the pIC50 is the IC50 on a negative log10 scale, so that one unit is a factor of ten. A low value points to a high IC50.

Format in all cases: biochemical
What all share (settings): ADP-Glo SIK kinase assay

One test concerns the target T1, SIK2 (Homo sapiens, UniProt Q9H0K1).
T1 construct: purchased ThermoFisher Scientific PV4792
In words: ADP-Glo kinase assay, SIK2. A digest of the protocol: (§1)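 ADP-Glo luminescent assay of ADP formed by SIK2 or SIK3 with substrate after ATP addition, 120 min at RT. Remaining ATP depleted 40 min, then ADP converted to ATP and read by luciferase luminescence after 30 min. Controls: 1% DMSO and 10 μM staurosporine (final).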
(ADP-Glo turns the ADP formed in a reaction into a luminescent signal.)

The target of another test is T2, SIK3 (Homo sapiens, UniProt Q9Y2K2).
T2 construct: purchased SignalChem S12-11G-100
T2 sequence (Q9Y2K2 whole entry): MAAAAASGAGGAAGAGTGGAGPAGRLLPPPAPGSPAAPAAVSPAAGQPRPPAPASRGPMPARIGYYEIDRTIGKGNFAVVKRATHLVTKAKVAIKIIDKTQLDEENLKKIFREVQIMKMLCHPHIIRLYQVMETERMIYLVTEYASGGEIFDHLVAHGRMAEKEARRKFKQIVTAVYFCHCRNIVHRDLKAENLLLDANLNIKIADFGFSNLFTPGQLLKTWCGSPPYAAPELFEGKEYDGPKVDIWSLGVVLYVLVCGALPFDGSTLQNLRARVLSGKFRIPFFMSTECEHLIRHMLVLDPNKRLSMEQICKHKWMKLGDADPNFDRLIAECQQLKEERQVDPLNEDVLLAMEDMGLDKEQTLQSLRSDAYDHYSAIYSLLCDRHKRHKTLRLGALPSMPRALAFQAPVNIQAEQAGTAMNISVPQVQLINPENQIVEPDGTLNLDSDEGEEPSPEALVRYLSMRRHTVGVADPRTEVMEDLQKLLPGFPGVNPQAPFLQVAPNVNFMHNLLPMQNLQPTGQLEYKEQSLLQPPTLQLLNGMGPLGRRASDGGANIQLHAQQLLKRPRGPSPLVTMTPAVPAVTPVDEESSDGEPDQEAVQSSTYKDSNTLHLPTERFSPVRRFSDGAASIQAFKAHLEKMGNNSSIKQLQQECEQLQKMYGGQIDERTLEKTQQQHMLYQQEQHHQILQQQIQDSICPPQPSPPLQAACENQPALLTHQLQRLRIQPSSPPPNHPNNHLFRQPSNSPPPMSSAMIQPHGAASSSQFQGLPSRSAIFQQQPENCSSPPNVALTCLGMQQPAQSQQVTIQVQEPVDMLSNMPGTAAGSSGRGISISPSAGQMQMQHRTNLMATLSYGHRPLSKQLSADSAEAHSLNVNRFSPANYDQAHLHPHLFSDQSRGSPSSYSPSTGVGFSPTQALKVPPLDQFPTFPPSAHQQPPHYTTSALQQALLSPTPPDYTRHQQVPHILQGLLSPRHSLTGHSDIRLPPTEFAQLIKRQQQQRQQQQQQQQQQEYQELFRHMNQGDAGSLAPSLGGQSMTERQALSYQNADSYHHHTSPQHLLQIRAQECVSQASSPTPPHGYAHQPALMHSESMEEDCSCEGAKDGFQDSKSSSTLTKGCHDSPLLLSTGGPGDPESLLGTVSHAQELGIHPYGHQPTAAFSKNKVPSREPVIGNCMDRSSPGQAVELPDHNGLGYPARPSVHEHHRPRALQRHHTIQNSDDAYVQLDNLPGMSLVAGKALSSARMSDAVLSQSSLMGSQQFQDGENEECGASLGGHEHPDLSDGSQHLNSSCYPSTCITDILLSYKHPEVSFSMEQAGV
In words: ADP-Glo kinase assay, SIK3. Summed up: as §1

The next test has as its target T3, SIK1 (Homo sapiens, UniProt P57059).
T3 construct: purchased Carna Biosciences 02-131
As to the kind of experiment: ADP-Glo kinase assay, SIK1. Summed up: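 ADP-Glo, RT throughout. Enz/substrate + ATP, 120 min; ADP-Glo reagent 40 min (ATP depletion); detection reagent 30 min; luminescence read. Neg ctrl 1% DMSO, pos ctrl 10 μM staurosporine, final concs.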

Each structure is given as a SMILES string. pIC50: −log10 of the molar value. Some results are limits rather than exact numbers.

T1 sequence (Q9H0K1 whole entry): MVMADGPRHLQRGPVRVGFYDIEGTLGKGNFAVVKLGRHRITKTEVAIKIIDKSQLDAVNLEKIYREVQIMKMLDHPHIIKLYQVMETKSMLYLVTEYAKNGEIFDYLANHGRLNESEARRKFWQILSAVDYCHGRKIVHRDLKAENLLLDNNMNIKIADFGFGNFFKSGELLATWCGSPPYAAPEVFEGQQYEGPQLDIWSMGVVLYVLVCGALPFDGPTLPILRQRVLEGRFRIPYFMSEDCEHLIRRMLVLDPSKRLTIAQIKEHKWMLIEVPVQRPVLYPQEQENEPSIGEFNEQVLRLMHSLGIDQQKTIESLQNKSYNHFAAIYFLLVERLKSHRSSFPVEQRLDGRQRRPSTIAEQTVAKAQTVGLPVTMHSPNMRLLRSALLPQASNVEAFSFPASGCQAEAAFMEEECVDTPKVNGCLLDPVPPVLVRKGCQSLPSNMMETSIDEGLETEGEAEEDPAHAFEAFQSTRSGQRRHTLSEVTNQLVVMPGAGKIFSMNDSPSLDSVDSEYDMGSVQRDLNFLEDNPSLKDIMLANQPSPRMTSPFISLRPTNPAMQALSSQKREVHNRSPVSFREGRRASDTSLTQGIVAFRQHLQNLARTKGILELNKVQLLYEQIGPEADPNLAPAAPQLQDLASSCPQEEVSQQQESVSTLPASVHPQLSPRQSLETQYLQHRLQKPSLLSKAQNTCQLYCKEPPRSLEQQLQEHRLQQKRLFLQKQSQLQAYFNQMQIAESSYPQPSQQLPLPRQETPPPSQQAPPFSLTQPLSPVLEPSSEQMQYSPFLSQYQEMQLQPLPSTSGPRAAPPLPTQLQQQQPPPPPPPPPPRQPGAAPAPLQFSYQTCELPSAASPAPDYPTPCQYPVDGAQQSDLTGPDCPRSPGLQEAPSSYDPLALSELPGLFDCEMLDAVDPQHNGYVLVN
T3 sequence (P57059 whole entry): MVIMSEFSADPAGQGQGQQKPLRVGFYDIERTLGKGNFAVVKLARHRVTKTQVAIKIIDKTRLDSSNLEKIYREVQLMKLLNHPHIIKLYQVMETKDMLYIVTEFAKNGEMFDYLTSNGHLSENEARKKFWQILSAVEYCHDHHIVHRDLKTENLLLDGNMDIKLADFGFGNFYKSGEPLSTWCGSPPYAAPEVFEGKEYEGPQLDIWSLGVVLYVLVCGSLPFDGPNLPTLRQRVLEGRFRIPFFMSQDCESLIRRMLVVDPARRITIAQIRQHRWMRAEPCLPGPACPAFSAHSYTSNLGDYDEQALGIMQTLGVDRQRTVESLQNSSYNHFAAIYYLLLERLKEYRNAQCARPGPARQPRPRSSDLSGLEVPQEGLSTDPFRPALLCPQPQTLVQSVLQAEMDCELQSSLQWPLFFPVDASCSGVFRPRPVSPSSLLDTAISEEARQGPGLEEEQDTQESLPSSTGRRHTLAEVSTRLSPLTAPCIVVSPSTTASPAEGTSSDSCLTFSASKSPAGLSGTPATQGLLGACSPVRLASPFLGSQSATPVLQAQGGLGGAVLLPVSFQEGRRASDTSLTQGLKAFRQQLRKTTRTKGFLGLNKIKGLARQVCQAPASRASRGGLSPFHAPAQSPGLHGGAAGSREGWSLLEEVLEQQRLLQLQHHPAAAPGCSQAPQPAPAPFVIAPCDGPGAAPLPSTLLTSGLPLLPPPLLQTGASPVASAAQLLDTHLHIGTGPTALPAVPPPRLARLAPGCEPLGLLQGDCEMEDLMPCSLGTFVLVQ

On to `COc1cc(-c2cnc3cc(OC4CCN(C)C4)ccn23)cc(OC(F)F)c1C(=O)NC1CC1` (stereo not drawn) [compound 15, N-cyclopropyl-2-(difluoromethoxy)-6-methoxy-4-[7-(1-methylpyrrolidin-3-yl)oxyimidazo[1,2-a]pyridin-3-yl]benzamide], for which the pIC50 was 7.00 to 8.00 against SIK2, 7.00 to 8.00 against SIK3 and less than 6.30 on SIK1.

Turning to `COc1cc(-c2cnc3cc(OCC4CCCCN4CC#N)ccn23)cc(OC(F)F)c1C(=O)NC1CC1` (stereo not drawn) [compound 269, 4-[7-[[1-(cyanomethyl)-2-piperidyl]methoxy]imidazo [1,2-a]pyridin-3-yl]-N-cyclopropyl-2-(difluoromethoxy)-6-methoxy-benzamide], the values for the pIC50 on SIK2, against SIK3 and against SIK1 were 7.00 to 8.00, 8.00 to 11.00 and 7.00 to 8.00, respectively.

On to `COc1cc(-c2cnc3cc(OCc4nc(C)no4)ccn23)cc(OC(F)F)c1C(=O)NC1CC1` [compound 229, N-cyclopropyl-2-(difluoromethoxy)-6-methoxy-4-[7-[(3-methyl-1,2,4-oxadiazol-5-yl)methoxy]imidazo[1,2-a]pyridin-3-yl]benzamide], for which the values for the negative-log IC50 (pIC50) against SIK2, at SIK3 and against SIK1 were 8.00 to 11.00, 8.00 to 11.00 and 7.00 to 8.00, respectively.

Take `COc1cc(-c2cnc3cc(OC[C@H]4COCCO4)ccn23)cnc1C(=O)NCC(F)(F)F` [compound 265, 5-[7-[[(2R)-1,4-dioxan-2-yl]methoxy]imidazo[1,2-a]pyridin-3-yl]-3-methoxy-N-(2,2,2-trifluoroethyl)pyridine-2-carboxamide]: the values for the pIC50 against SIK2, on SIK3 and on SIK1 were 6.30 to 7.00, 6.30 to 7.00 and less than 6.30, respectively.

As for `COc1cc(-c2cnc3cc(OC[C@H]4CCN(CCC#N)C4)ccn23)cc(OC(F)F)c1C(=O)NC1CC1` [compound 350, 4-[7-[[(3S)-1-(2-cyanoethyl)pyrrolidin-3-yl]methoxy]imidazo[1,2-a]pyridin-3-yl]-N-cyclopropyl-2-(difluoromethoxy)-6-methoxy-benzamide], the negative-log IC50 (pIC50) is 8.00 to 11.00 at SIK2, 8.00 to 11.00 at SIK3 and 7.00 to 8.00 on SIK1.

In the case of `CCN1CCc2cc(-c3cnc4cc(OCCN(C)C)ccn34)cc(OC)c2C1=O` [compound 53, 6-[7-[2-(dimethylamino)ethoxy]imidazo[1,2-a]pyridin-3-yl]-2-ethyl-8-methoxy-3,4-dihydroisoquinolin-1-one], the values for the negative logarithm of the IC50 (pIC50) against SIK2, against SIK3 and at SIK1 were 7.00 to 8.00, 7.00 to 8.00 and less than 6.30, respectively.

For `COC(=O)NCC(F)(F)COc1ccn2c(-c3cc(OC)c(C(=O)NC4CC4)c(OC(F)F)c3)cnc2c1` [Cpd 365, methyl N-[3-[3-[4-(cyclopropylcarbamoyl)-3-(difluoromethoxy)-5-methoxy-phenyl]imidazo[1,2-a]pyridin-7-yl]oxy-2,2-difluoro-propyl]carbamate], the negative-log IC50 (pIC50) against SIK2 was 8.00 to 11.00; on SIK3, 8.00 to 11.00; at SIK1 it was 7.00 to 8.00.

On to `COc1cc(-c2cnc3cc(OC4CCC4)ccn23)cc(OC(F)F)c1C(=O)NC1CC1` [compound 151, 4-[7-(cyclobutoxy)imidazo[1,2-a]pyridin-3-yl]-N-cyclopropyl-2-(difluoromethoxy)-6-methoxy-benzamide], for which the pIC50 is 8.00 to 11.00 on SIK2, 8.00 to 11.00 against SIK3 and 7.00 to 8.00 against SIK1.

As for `COc1cc(-c2cnc3cc(OCC4CC(=O)N(C)C4)ccn23)cc(OC(F)F)c1C(=O)NC1CC1` (stereo not drawn) [compound 26, N-cyclopropyl-2-(difluoromethoxy)-6-methoxy-4-[7-[(1-methyl-5-oxo-pyrrolidin-3-yl)methoxy]imidazo[1,2-a]pyridin-3-yl]benzamide], the negative-log IC50 (pIC50) was 8.00 to 11.00 on SIK2, 8.00 to 11.00 against SIK3 and 7.00 to 8.00 at SIK1.

For `COc1cc(-c2cnc3cc(OCC4CCCCN4C(C)C)ccn23)cc(OC(F)F)c1C(=O)NC1CC1` (stereo not drawn) [compound 148, N-cyclopropyl-2-(difluoromethoxy)-4-[7-[(1-isopropyl-2-piperidyl)methoxy]imidazo [1,2-a]pyridin-3-yl]-6-methoxy-benzamide], the negative-log IC50 (pIC50) is 8.00 to 11.00 against SIK2, 8.00 to 11.00 on SIK3 and 6.30 to 7.00 against SIK1.

Take `COc1cc(-c2cnc3cc(OCCCN4CCc5ncncc5C4)ccn23)cc(OC(F)F)c1C(=O)NC1CC1` [compound 304, N-cyclopropyl-2-(difluoromethoxy)-4-[7-[3-(7,8-dihydro-5H-pyrido[4,3-d]pyrimidin-6-yl)propoxy]imidazo[1,2-a]pyridin-3-yl]-6-methoxy-benzamide]: the pIC50 is 8.00 to 11.00 against SIK2, 8.00 to 11.00 against SIK3 and 7.00 to 8.00 on SIK1.

As for `COc1cc(-c2cnc3cc(OCC(N)C4CCOC4)ccn23)cc(OC(F)F)c1C(=O)NC1CC1` (stereo not drawn) [compound 134, 4-[7-(2-amino-2-tetrahydrofuran-3-yl-ethoxy)imidazo[1,2-a]pyridin-3-yl]-N-cyclopropyl-2-(difluoromethoxy)-6-methoxy-benzamide], the pIC50 on SIK2 was 8.00 to 11.00; at SIK3 it was 8.00 to 11.00; against SIK1, 7.00 to 8.00.

Consider `COc1cc(-c2cnc3cc(OCCN4CCOC(C5CC5)C4)ccn23)cc(OC(F)F)c1C(=O)NC1CC1` (stereo not drawn) [compound 196, N-cyclopropyl-4-[7-[2-(2-cyclopropylmorpholin-4-yl)ethoxy]imidazo[1,2-a]pyridin-3-yl]-2-(difluoromethoxy)-6-methoxy-benzamide], for which the negative logarithm of the IC50 (pIC50) on SIK2 is 8.00 to 11.00; against SIK3, 8.00 to 11.00; at SIK1 it was 7.00 to 8.00.

For `COc1cc(-c2cnc3cc(OCc4noc(C)n4)ccn23)cc(OC(F)F)c1C(=O)NC1CC1` [compound 231, N-cyclopropyl-2-(difluoromethoxy)-6-methoxy-4-[7-[(5-methyl-1,2,4-oxadiazol-3-yl)methoxy]imidazo[1,2-a]pyridin-3-yl]benzamide], the pIC50 was 8.00 to 11.00 against SIK2, 8.00 to 11.00 against SIK3 and 7.00 to 8.00 on SIK1.

For the molecule `COc1cc(-c2cnc3cc(OCCN4CCOC(C#N)C4)ccn23)cc(OC(F)F)c1C(=O)NC1CC1` (stereo not drawn) [compound 213, 4-[7-[2-(2-cyanomorpholin-4-yl)ethoxy]imidazo[1,2-a]pyridin-3-yl]-N-cyclopropyl-2-(difluoromethoxy)-6-methoxy-benzamide], the negative-log IC50 (pIC50) was 8.00 to 11.00 on SIK2, 8.00 to 11.00 against SIK3 and 7.00 to 8.00 at SIK1.

Regarding `COc1cc(-c2cnc3cc(OCC4CCN4C(=O)OC(C)(C)C)ccn23)cc(OC(F)F)c1C(=O)NC1CC1` (stereo not drawn) [compound 87, tert-butyl 2-[[3-[4-(cyclopropylcarbamoyl)-3-(difluoromethoxy)-5-methoxy-phenyl]imidazo[1,2-a]pyridin-7-yl]oxymethyl]azetidine-1-carboxylate], the pIC50 was 8.00 to 11.00 on SIK2, 8.00 to 11.00 against SIK3 and 7.00 to 8.00 at SIK1.

As to `COc1cc(-c2cnc3cc(OCC(F)(F)F)ccn23)cc(OC(F)F)c1C(=O)NC1CC1` [compound 91, N-cyclopropyl-2-(difluoromethoxy)-6-methoxy-4-[7-(2,2,2-trifluoroethoxy)imidazo [1,2-a]pyridin-3-yl]benzamide], the pIC50 at SIK2 is 8.00 to 11.00; on SIK3, 8.00 to 11.00; against SIK1, 7.00 to 8.00.

For the molecule `COc1cc(-c2cnc3cc(OCCCN4CC(C(=O)OC(C)(C)C)C4)ccn23)cc(OC(F)F)c1C(=O)NC1CC1` [compound 391, tert-butyl 1-[3-[3-[4-(cyclopropylcarbamoyl)-3-(difluoromethoxy)-5-methoxy-phenyl]imidazo[1,2-a]pyridin-7-yl]oxypropyl]azetidine-3-carboxylate], the results for the pIC50 against SIK2, against SIK3 and against SIK1 were 8.00 to 11.00, 8.00 to 11.00 and 7.00 to 8.00, respectively.

Take `COc1cc(-c2cnc3cc(OCCNCCO)ccn23)cc(OC(F)F)c1C(=O)NC1CC1` [compound 114]: the pIC50 is 8.00 to 11.00 against SIK2, 8.00 to 11.00 against SIK3 and 7.00 to 8.00 against SIK1.

In the case of `COc1cc(-c2cnc3cc(OCC4CCCN4C(C)C)ccn23)cc(OC(F)F)c1C(=O)NC1CC1` (stereo not drawn) [compound 295, N-cyclopropyl-2-(difluoromethoxy)-4-[7-[(1-isopropylpyrrolidin-2-yl)methoxy]imidazo[1,2-a]pyridin-3-yl]-6-methoxy-benzamide], the pIC50 on SIK2 was 8.00 to 11.00; against SIK3 it was 8.00 to 11.00; against SIK1, 6.30 to 7.00.

For `COc1cc(-c2cnc3cc(OC4CCCN(C)C4)ccn23)cc(OC(F)F)c1C(=O)NC1CC1` (stereo not drawn) [compound 2, N-cyclopropyl-2-(difluoromethoxy)-6-methoxy-4-[7-[(1-methyl-3-piperidyl)oxy]imidazo [1,2-a]pyridin-3-yl]benzamide], the pIC50 at SIK2 was 7.00 to 8.00; at SIK3, 8.00 to 11.00; against SIK1, less than 6.30.

As to `COc1cc(-c2cnc3cc(OCCN4CCCC(F)C4)ccn23)cc(OC(F)F)c1C(=O)NC1CC1` (stereo not drawn) [compound 212, N-cyclopropyl-2-(difluoromethoxy)-4-[7-[2-(3-fluoro-1-piperidyl)ethoxy]imidazo[1,2-a]pyridin-3-yl]-6-methoxy-benzamide], the negative-log IC50 (pIC50) against SIK2 was 8.00 to 11.00; at SIK3 it was 8.00 to 11.00; on SIK1, 7.00 to 8.00.

On to `COc1cc(-c2cnc3cc(OCC4CC(N)C4)ccn23)cc(OC(F)F)c1C(=O)NC1CC1` (stereo not drawn) [compound 108, 4-[7-[(3-aminocyclobutyl)methoxy]imidazo[1,2-a]pyridin-3-yl]-N-cyclopropyl-2-(difluoromethoxy)-6-methoxy-benzamide], for which the negative-log IC50 (pIC50) against SIK2, on SIK3 and at SIK1 was 8.00 to 11.00 in each case.
